Values quoted from earlier work in patent US9062031B2, “Method of preparing polymorphic pure form A of bazedoxifene acetate” (SANDOZ AG, priority 2010, dated 2015).

Legend:
[1] = aqueous and organic solvent systems
[2] = solvent or solvent mixture, for example ethylacetate and ethanol

Solubility compared with form B [1]: higher solubility than form B | Conversion to form B upon contact with solvent [2]: can easily convert to form B
SMILES: Cc1c(-c2ccc(O)cc2)n(Cc2ccc(OCCN3CCCCCC3)cc2)c2ccc(O)cc12 [Bazedoxifene x acetate form A, 1-[[4-[2-(Hexahydro-1H-azepin-1-Dethoxy]phenyl]methyl]-2-(4-hydroxyphenyl)-3-methyl-1H-indol-5-ol monoacetate]
